ChEMBL document CHEMBL1201862, “PubChem BioAssay data set” (2004)
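Briefly, cells in 96-well plates were exposed to five compound concentrations for 48 h, and endpoints were estimated by linear interpolation. The concentration for 50% growth inhibition is given as GI50.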 Active and inactive are the calls of the source. No stated cut-off is given here; in the data, active = GI50 up to about 1.1 µM and inactive = higher.

Legend:
Assay in all cases: growth of human tumour cells (NCI), 48 h
[1] = tested on: OVCAR-5
[2] = tested on: SK-MEL-5
[3] = tested on: MDA-MB-231
[4] = tested on: A549
[5] = tested on: IGROV-1
[6] = tested on: SK-OV-3
[7] = tested on: CAKI-1
[8] = tested on: MDA-N
[9] = tested on: A498
[10] = tested on: HL-60
[11] = tested on: HOP-92
[12] = tested on: SF-268
[13] = tested on: NCI-H460
[14] = tested on: HOP-62
[15] = tested on: SNB-75
[16] = tested on: EKVX
[17] = tested on: NCI-H226
[18] = tested on: RPMI-8226
[19] = tested on: RXF 393
[20] = tested on: HCT-116

Measured: GI50

COc1c(Br)cc2ccccc2c1-c1c(OC)c(Br)cc2ccccc12
inactive: [1] > 100 µM | [2] 67.5 µM | [3] > 100 µM | [4] > 100 µM | [5] > 100 µM | [6] > 100 µM | [7] > 100 µM | [8] > 100 µM | [9] > 100 µM | [10] 25.6 µM | [11] > 100 µM | [12] > 100 µM | [13] > 100 µM | [14] > 100 µM | [15] > 100 µM | [16] > 100 µM | [17] > 100 µM | [18] 80.5 µM | [19] > 100 µM

CN(C)Cc1cc(/N=N/c2ccccc2Cl)cc(CN(C)C)c1O
inactive: [1] 46.9 µM | [2] 18.2 µM | [3] 98.4 µM | [4] 77.4 µM | [5] 58.1 µM | [7] > 100 µM | [8] 29.2 µM | [9] 33.7 µM | [10] 20.8 µM | [11] 21.5 µM | [12] 73.8 µM | [13] 47.2 µM | [20] 53 µM | [14] 6.67 µM | [15] 56.4 µM | [16] > 100 µM | [17] > 100 µM | [18] > 100 µM | [19] 31.6 µM

CN1Cc2ccccc2S(=O)(=O)n2cccc2C1=O
inactive: [1] > 100 µM | [2] > 100 µM | [3] > 100 µM | [4] > 100 µM | [5] > 100 µM | [6] > 100 µM | [7] > 100 µM | [8] > 100 µM | [9] > 100 µM | [10] > 100 µM | [11] > 100 µM | [13] > 100 µM | [20] > 100 µM | [14] > 100 µM | [15] > 100 µM | [16] > 100 µM | [18] > 100 µM | [19] > 100 µM

CCOC(=O)c1c(N2CCCC2)[nH]c(=O)c(C(c2c(O)c(C(=O)OCC)c(N3CCCC3)[nH]c2=O)C(C)C)c1O
inactive: [1] 33.2 µM | [2] > 100 µM | [3] 21.7 µM | [4] > 100 µM | [6] > 100 µM | [7] 48 µM | [8] > 100 µM | [9] > 100 µM | [11] 28.7 µM | [12] 72.4 µM | [13] > 100 µM | [20] > 100 µM | [14] 94.4 µM | [15] 25.3 µM | [16] > 100 µM | [17] > 100 µM | [18] > 100 µM | [19] 43 µM

CCOc1ccc(C(c2c(O)c3ccccc3oc2=O)c2c(O)c3ccccc3oc2=O)cc1
inactive: [1] > 100 µM | [2] 44.5 µM | [3] 58.5 µM | [4] 69.8 µM | [5] > 100 µM | [6] 47.4 µM | [7] 93.8 µM | [8] 60 µM | [9] 36.1 µM | [10] 19.9 µM | [11] 23.6 µM | [12] 44.5 µM | [20] 48.4 µM | [14] 61.5 µM | [16] 80.4 µM | [17] 95.9 µM | [18] 32.2 µM

N#CCCN(CCC#N)c1ccc(C(=N/c2ccc(Cl)cc2)/N=N/c2ccccc2)cc1
inactive: [1] > 100 µM | [2] 10.3 µM | [3] > 100 µM | [4] 36.4 µM | [5] 55.7 µM | [6] > 100 µM | [7] > 100 µM | [8] > 100 µM | [9] > 100 µM | [11] > 100 µM | [12] > 100 µM | [13] 55.1 µM | [20] > 100 µM | [14] > 100 µM | [15] 59.4 µM | [16] 99.5 µM | [17] > 100 µM | [18] > 100 µM | [19] 16.9 µM

CC(=O)NC1C(OCc2ccccc2)OC(CO)C(O)C1OC(C)C(=O)NC(C(=O)N[C@@H](CCC(=O)NCCNCCNc1c2ccccc2nc2cccc([N+](=O)[O-])c12)C(N)=O)C(C)C (stereo partly specified)
inactive: [3] 70.6 µM | [4] 14.8 µM | [5] 33.6 µM | [6] > 100 µM | [7] 30.3 µM | [8] 20.1 µM | [9] 41.8 µM | [10] 10.1 µM | [11] 18.2 µM | [12] 36.1 µM | [13] 14.7 µM | [20] 19.9 µM | [14] 30.1 µM | [15] 77.4 µM | [17] > 100 µM | [18] 17.9 µM
